Assay results as given in patent US5886022A, “Substituted cycloalkanecarboxylic acid derivatives as matrix metalloprotease inhibitors” (priority 1997, dated 1999).
Counter-ions that a name gives are not always drawn.

Experiments:
Type in all cases: biochemical
MMP = MMP inhibitory activity
[1] = target: T1, MMP-3 (recombinant truncated stromelysin) (Homo sapiens, UniProt P08254); experiment: Primary Thiopeptilide MMP-3 Inhibition Assay; details: for IC50: x (n): average IC50 of n separate determinations
T1 construct: made in house; host or cells: E. coli
T1 sequence (P08254 100-274 limits assumed): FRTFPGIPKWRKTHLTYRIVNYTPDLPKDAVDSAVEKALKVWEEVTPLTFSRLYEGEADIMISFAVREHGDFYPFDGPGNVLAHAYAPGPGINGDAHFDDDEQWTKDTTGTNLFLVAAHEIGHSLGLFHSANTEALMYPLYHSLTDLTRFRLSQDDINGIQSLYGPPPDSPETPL

[2] = target: T2, MMP-9 (Gelatinase-B, 92 kDa) (Homo sapiens, UniProt P14780); experiment: Thiopeptilide MMP-9 Inhibition Assay; details: for IC50: x (n): average IC50 of n separate determinations
T2 construct: from tissue; host or cells: human polymorphonuclear leukocytes from fresh whole blood (New York Blood Center), PMA-stimulated supernatant, purified
T2 sequence (P14780 107-707 limits assumed): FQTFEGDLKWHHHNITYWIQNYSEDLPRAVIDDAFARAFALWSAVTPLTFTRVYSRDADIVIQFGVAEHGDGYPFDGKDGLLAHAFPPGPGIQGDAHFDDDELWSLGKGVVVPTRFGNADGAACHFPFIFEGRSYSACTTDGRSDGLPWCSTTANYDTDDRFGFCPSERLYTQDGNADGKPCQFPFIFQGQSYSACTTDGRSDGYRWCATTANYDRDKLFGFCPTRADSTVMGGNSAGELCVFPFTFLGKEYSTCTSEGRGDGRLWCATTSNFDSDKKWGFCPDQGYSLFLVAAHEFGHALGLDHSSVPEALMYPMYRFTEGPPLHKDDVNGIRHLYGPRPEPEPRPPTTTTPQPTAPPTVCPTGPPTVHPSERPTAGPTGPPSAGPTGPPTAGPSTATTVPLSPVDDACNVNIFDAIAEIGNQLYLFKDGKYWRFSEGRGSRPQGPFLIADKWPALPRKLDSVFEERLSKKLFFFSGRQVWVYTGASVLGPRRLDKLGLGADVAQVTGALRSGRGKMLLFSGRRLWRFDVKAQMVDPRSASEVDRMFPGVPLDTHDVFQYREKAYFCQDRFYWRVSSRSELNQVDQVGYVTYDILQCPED
Procedure: MMP-9 was isolated modifying the previously described procedures of Hibbs et al (J. Biol. Chem., 260, 2493-2500, 1984) and Wilhelm et al (J. Biol. Chem., 264, 17213-17221, 1989). Briefly, polymorphonuclear leukocytes (PMN) preparations were isolated as described above from 3 or more units of freshly drawn whole blood obtained from the New York Blood Center (N.Y., N.Y.). Cells were resuspended in phosphate buffered saline (PBS) containing 100 ng/ml phorbol myristate acetate (PMA) in the presence of 50 mM di-isopropylfluorophospate (DFP), 1 μg/ml leupeptin and aprotinin, and 1 mg/ml catalase for 1 hr at 37° C. Supernatants were collected by centrifugation (300×g) and the samples were frozen at -70° C. All chromatographic methods were performed at 4° C. Thawed samples were concentrated 5-fold using an Amicon chamber equipped with a YM-10 membrane. The concentrate was pressure dialyzed against 0.02M Tris-HCl, 0.1M NaCl, 1 mM CaCl2, 1 μM ZnCl2, 0.001 % Brij-35, 0.02% sodium azide (NaN3), pH 7.5 and applied to DEAE ion exchange chromatography resin which was previously equilibrated with the same buffer at a flow rate of 0.4 ml/min. The column was extensively washed with the same buffer and gelatinase was eluted as 4 ml fractions from the column with 0.02M Tris-HCl, 0.5M NaCl, 1 mM CaCl2, 1 μM ZnCl2, 0.001% Brij-35, 0.02% NaN3, pH 7.5. Gelatinase containing fractions were observed by gelatin zymography (see below), loaded onto a gelatin agarose affinity resin and washed with the same buffer. Gelatinase activity was eluted at a flow rate of 1 ml/min from the column as 1 ml fractions with 0.02M Tris-HCl, 1M NaCl, 1 mM CaCl2, 1 μmM ZnCl2, 0.001% Brij-35, 0.02% NaN3, pH 7.5 containing 10% dimethyl sulfoxide (DMSO). The fractions containing gelatinase activity were pooled and dialyzed against 0.005M Tris-HCl, 5 mM NaCl, 0.5 mM CaCl2, 0.1 μM ZnCl2, 0.001% Brij-35, pH 7.4. The protein content associated with material was determined with a micro-BCA assay (Pierce, Rockford, Ill.), lyophilized and reconstituted to a desired working concentration (100 μg/ml).
Progelatinase (10 μg/ml) isolated from human PMNs (described above) was activated with 1 mM 4-aminophenylmercuric acetate (APMA) in 50 mM Tris-HCl, 200 mM NaCl, 5 mM CaCl2, 0.001% Brij-35, pH 7.6 at 37° C. for 16 hr. The activated enzyme was dialyzed against the above buffer to remove APMA. The thiopeptolide spectrophotometric ( Weingarten, H., Feder, J., Anal. Biochem., 147, 437-440, 1985) substrate hydrolysis assay was modified to a micro-assay format. Spectrophotometric analysis of MMP-9 activity required a 1000-fold dilution of activated MMP-9 (10 ng/ml, 0.14 nM) in assay buffer comprised of 50 mM 4-(2-hydroxyethyl)1-piperazine ethane sulfonic acid (HEPES), 0.15M NaCl, 10 mM CaCl2, 0.001% Brij-35, pH 6.5 between 100 and 1000-fold for enzyme assays. Reaction mixtures for inhibitor studies contained 1 mM Ac-Pro-Leu-Gly-S-Leu-Leu-Gly-o-ethyl thiopeptolide substrate dissolved in HEPES assay buffer pH 6.5, along with 0.5 mM 5,5'-dithio-bis-(nitrobenzoicacid), drug concentrations ranging from 0.5 nM to 5 μM and activated enzyme (10-100 ng) in a total volume of 130 μl. The hydrolysis of substrate was monitored at 405 nm using an automated plate reader (Molecular Devices, Menlo Park, Calif.). Enzyme mediated substrate hydrolysis was corrected for non-enzymatic hydrolysis of the substrate by the subtraction of values from control samples incubated in the absence of enzyme. Drug efficacy was reported as the percent inhibition of enzyme activity calculated as:
(Control Values-Treated Values)/Control Values×100
Two way analysis of variance was used to determine significance between individual test groups.
All IC50 values are expressed as nM. When "I=x %" is shown, x presents the % inhibition at 5 μM. When "x (n)" is shown, x is the erage IC50 value of n separate determinations.

| SMILES | IC50 [1] [nM] | IC50 [2] [nM] | also measured |
| --- | --- | --- | --- |
| O=C(O)[C@@H]1CC[C@H]1C(=O)c1ccc(-c2ccc(Cl)cc2)cc1 (relative stereo) [Example 206, Cyclobutanecarboxylic acid, 2-[(4'-chloro[1,1'-biphenyl]-4-yl)carbonyl]-, trans-] |  |  | MMP inhibitory activity / potency in words (MMP): much more active |
| CC(C)CC(CC(=O)c1ccc(-c2ccccc2)cc1)C(=O)O (stereo not drawn) [Example 13, [1,1'-Biphenyl]-4-butanoic acid, α-(2-methylpropyl)-γ-oxo-] |  |  | MMP inhibitory activity / potency in words (MMP): low potency |
| CC(C)CC(CC(O)c1ccc(-c2ccc(Cl)cc2)cc1)C(=O)O (stereo not drawn) [Example 26, [1,1'-Biphenyl]-4-butanoic acid, 4'-chloro-γ-hydroxy-α-(2-methylpropyl)-] | 2600 | 2400 |  |
| CC(C)CC(CC(O)c1ccc(-c2ccc(Cl)cc2)cc1)C(=O)O (stereo not drawn) [Example 27, [1,1'-Biphenyl]-4-butanoic acid, 4'-chloro-γ-hydroxy-α-(2-methylpropyl)-] | 5000 |  |  |
| O=C(CC(CCCc1ccccc1)C(=O)O)c1ccc(-c2ccccc2)cc1 (stereo not drawn) [Example 91, [1,1'-Biphenyl]-4-butanoic acid, γ-oxo-α-(3-phenylpropyl)-] |  | 2800 | MMP inhibitory activity / potency in words (MMP): low potency |
| O=C(CC(Cc1ccccc1)C(=O)O)c1ccc(-c2ccc(Cl)cc2)cc1 (stereo not drawn) [Example 105, [1,1'-Biphenyl]-4-butanoic acid, 4'-chloro-γ-oxo-α-(phenylmethyl)-] |  | 900 |  |
| O=C(C[C@@H](C[S+]([O-])c1ccccc1)C(=O)O)c1ccc(-c2ccc(Cl)cc2)cc1 (stereo partly drawn) [Example 126, [1,1'-Biphenyl]-4-butanoic acid, 4'-chloro-γ-oxo-α-[(phenylsulfmyl)methyl]-,stereoisomer] |  |  | MMP-3 Thiopeptilide % inhibition (I) ([1]; at 5 μM): 17% |
| Cc1cc(C)cc(SCC(CC(=O)c2ccc(-c3ccc(Cl)cc3)cc2)C(=O)O)c1 (stereo not drawn) [Example 165, [1,1'-Biphenyl]-4-butanoic acid, 4'-chloro-α-[[(3,5-dimethylphenyl)thio]methyl]-γ-oxo-] | 1600 |  |  |
| CC(=O)SC(CC(=O)c1ccc(Oc2ccc(Cl)cc2)cc1)C(=O)O (stereo not drawn) [Example 183, Benzenebutanoic acid, α-(acetylthio)-4-(4-chlorophenoxy)-γ-oxo-, reference compound] |  |  | MMP inhibitory activity / potency in words (MMP): very low potency |
| O=C(CC(C(=O)O)N1CCSCC1)c1ccc(-c2ccc(Cl)cc2)cc1 (stereo not drawn) [Example 184, 4-Thiomorpholineacetic acid, α-[2-(4'-chloro[1,1'-biphenyl]-4-yl)-2-oxoethyl]-, hydrochloride] |  |  | inhibition at 5 µM ([1]; at 5 μM, read-out: MMP-3 Thiopeptilide % inhibition (I)): 19% |
| CCN(CC)CCC(CC(=O)c1ccc(-c2ccc(Cl)cc2)cc1)C(=O)O (stereo not drawn) [Example 191, [1,1'-Biphenyl]-4-butanoic acid, 4'-chloro-α-[2-(diethylamino)ethyl]-γ-oxo-,hydrochloride] |  |  | inhibition at 5 µM ([2]; at 5 μM, read-out: MMP-9 Thiopeptilide % inhibition (I)): 31% |

Further lines, with some results ahead:

| IC50 [1] [nM] | IC50 [2] [nM] | SMILES | also measured |
| --- | --- | --- | --- |
| 33 | 108 | COC(=O)c1ccccc1S[C@@H]1CC[C@H](C(=O)c2ccc(-c3ccc(Cl)cc3)cc2)[C@H]1C(=O)O (relative stereo) [Example 219, Benzoic acid, 2-[[2-carboxy-3-[(4'-chloro[1,1'-biphenyl]-4-yl)carbonyl]cyclopentyl]thio]-, 1-methyl ester, (1α,2β,3α)-] |  |
| 80 | 32 | O=C(O)[C@@H]1[C@@H](Sc2ccc(Cl)cc2)CC[C@H]1C(=O)c1ccc(-c2ccc(Cl)cc2)cc1 (relative stereo) [Example 222, Cyclopentanecarboxylic acid, 2-[(4'-chloro [1,1'-biphenyl]-4-yl)carbonyl]-5-[(4-chlorophenyl)thio]-, (1α,2β,5β)-] |  |
| 340 | 700 | O=C(O)[C@@H]1[C@H](Sc2ccc(Cl)cc2)CC[C@H]1C(=O)c1ccc(-c2ccc(Cl)cc2)cc1 (relative stereo) [Example 223, Cyclopentanecarboxylic acid, 2-[(4'-chloro[1,1'-biphenyl]-4-yl)carbonyl]-5-[(4-chlorophenyl)thio]-, (1α,2β,5α)-] |  |
| 36 |  | CCOc1ccc(-c2ccc(C(=O)[C@@H]3CC[C@H](Sc4ccccc4)[C@H]3C(=O)O)cc2)cc1 (relative stereo) [Example 224, Cyclopentanecarboxylic acid, 2-[(4'-ethoxy[1,1'-biphenyl]-4-yl)carbonyl]-5-(phenylthio)-, (1α,2β,5β)-] |  |
| 66 |  | CCOc1ccc(-c2ccc(C(=O)[C@@H]3CC[C@@H](Sc4ccccc4)[C@H]3C(=O)O)cc2)cc1 (relative stereo) [Example 225, Cyclopentanecarboxylic acid, 2-[(4'-ethoxy[1,1'-biphenyl]-4-yl)carbonyl]-5-(phenylthio)-, (1α,2β,5α)-] |  |
| 98 |  | CCOc1ccc(-c2ccc(C(=O)[C@@H]3CC[C@H](Cc4ccccc4)[C@H]3C(=O)O)cc2)cc1 (relative stereo) [Example 226, Cyclopentanecarboxylic acid, 2-[(4'-ethoxy[1,1'-biphenyl]-4-yl)carbonyl]-5-(phenylmethyl)-, (1α,2β,5β)-] |  |
| 140 |  | O=C(O)[C@@H]1[C@@H](Cc2ccccc2)CC[C@H]1C(=O)c1ccc(-c2ccc(Cl)cc2)cc1 (relative stereo) [Example 227, Cyclopentanecarboxylic acid, 2-[(4'-chloro [1,1'-biphenyl]-4-yl)carbonyl]-5-(phenylmethyl)-, (1α,2β,5β)-] |  |
|  | 640 | O=C(O)[C@@H]1[C@@H](C(=O)c2ccc(-c3ccc(Cl)cc3)cc2)CC[C@H]1Sc1ccccc1 (single isomer, unassigned) [Example 212, Cyclopentanecarboxylic acid, 2-[(4'-chloro[,1'-biphenyl]-4-yl)carbonyl]-5-(phenylthio)-, [1R-(1α,2β,5β)]-] |  |
| 38 | 1.8 | O=C(CC(CCN1C(=O)c2ccccc2C1=O)C(=O)O)c1ccc(-c2ccc(Cl)cc2)cc1 (stereo not drawn) [Example 194, 2H-Isoindole-2-butanoic acid, α-[2-(4'-chloro[1,1'-biphenyl]-4-yl)-2-oxoethyl]-1,3-dihydro-1,3-dioxo-] |  |
